Earlier results, collected in patent US11013708B2, “Prevention of psychotic disorders and/or treatment of psychotic symptoms” (Orygen Youth Health Research Centre, priority 2008, dated 2021).

What was measured:
[1] = test system: first-episode psychosis patients; details: in vivo 1H-MRS
[2] = test system: ultra-high-risk groups; details: risperidone and cognitive therapy for 6 months vs supportive counselling

Row | SMILES | glutathione in temporal lobes [1] | efficacy of preventive intervention vs comparator [2]
1 | CC/C=C\C/C=C\C/C=C\C/C=C\C/C=C\CCCC(=O)O [EPA, all cis (or all z) 5,8, 11, 14, 17-eicosapentanoic acid] | can increase glutathione | –
2 | Cc1nc2n(c(=O)c1CCN1CCC(c3noc4cc(F)ccc34)CC1)CCCC2 [risperidone] | – | significantly more effective than supportive counselling at end of intervention, but not at 12-month follow-up
